A short description of one data set: in vitro. To be noted: human, Caco-2, pH 7.4.
Another data set addresses p97 (Homo sapiens, UniProt P55072). Nature of the data set: P97 ATPase biochemical assay (ADP Glo). To be noted: 20 nM p97, 20 μM ATP, 37° C. 15 minutes. The protocol: The ATPase assay is performed according the following protocol: Purified enzyme (20 nM p97), substrate (20 μM ATP) and a dose titration of compounds are mixed in buffer (50 mM TRIS pH 7.5, 20 mM MgCl2, 0.02% TX-100, 1 mM DTT, 0.2% (v/v) glycerol) and incubated at 37° C. for 15 minutes. The reaction is terminated and the level of product generated is measured using the ADP Glo Assay Kit (Promega, Madison Wis.). Plotting product generated versus compound concentration and using a four-parameter fit model generates an IC50 value for each compounds.
The p97 assay is an initial screening assay used to determine inhibitory activity of the fused pyrimidine compounds of the invention against the p97 complex. As discussed above, inhibition of activity of the p97 proteosome complex can enable apoptosis and cause elimination of neoplastic cells (cancer cells). The method follows that of Christianson in Nat.
Assay Buffer is a mixture of 50 mM TRIS pH 7.5, 20 mM MgCl2, 0.02% TX-100, 1 mM DTT and 0.2% (v/v) Glycerol. […] The identification kit is an ADP glo kit (Promega): stop buffer, detection reagent.
0.5 μL compound serial diluted in DMSO (Final Conc. 10%)
2 μL ATP (Final Conc.=20 uM, diluted in assay buffer)
2.5 μL p97 (Final Conc.=20 nM, diluted in assay buffer)
Incubate at 37 degC for 15 min.
Add 5 μL of stop buffer, incubate at RT for 40 min.
Add 10 μL of detection reagent, incubate at RT for 30 min.
Read luminescence on Envision plate reader.
Plot normalized luminescence data against log-transformed concentration values and fit to a sigmoidal curve to determine IC50 values (done in Collaborative Drug Discovery software).
(ADP-Glo turns the ADP formed in a reaction into a luminescent signal.)

For a further data set, the system named is K48-Ub, A549 cells. Kind of data set: A549 K48 cell intensity (immunofluorescence, high content imaging). It is filed as cell-based. To be noted: Homo sapiens, 6 hr compound incubation. The protocol: Image-analysis is used to generate quantitative data from these assays that can be fit to a four-parameter sigmoid curve to derive IC50 values. Substrates of the ubiquitin-proteasome system, such as p53, are monitored after tumor cell lines are incubated with compounds for several hours. Accumulation of these proteins indicates an inhibition of proteasome-mediated degradation. Accumulation of lysine-48 chain linkage of poly-ubiquitin is also monitored by immunofluorescence as an indicator of ubiquitin-proteasome system inhibition. Both LC3 and SQSTM1 are mediators of autophagy. The localization and amounts of these proteins are monitored by immunofluorescence and report on the activity and inhibition of autophagy in response to p97 inhibition.
Day 1, Cell Plating to Establish Colonies of Cancer Cells • Cell Plating: • Seed cells ˜16 hrs prior to compound treatment • Plate 25 μL of A549 cells in every well of 384-well plate using multidrop. • Two (2) black plates for IF at 2500 cells/well • Let plate sit at room temp for 10-15 minutes prior to putting in incubator to allow cells to stick in middle of plate. • One (1) white plate for viability at 500 cells/well.

The source of these data is US9475824B2, “Fused pyrimidines as inhibitors of p97 complex” (Cleave Biosciences, Inc., priority 2012, dated 2016).

Each structure is given as a SMILES string. Bounds are passed on as bounds.

p97, sequence (P55072 whole entry, the tested form may be a part): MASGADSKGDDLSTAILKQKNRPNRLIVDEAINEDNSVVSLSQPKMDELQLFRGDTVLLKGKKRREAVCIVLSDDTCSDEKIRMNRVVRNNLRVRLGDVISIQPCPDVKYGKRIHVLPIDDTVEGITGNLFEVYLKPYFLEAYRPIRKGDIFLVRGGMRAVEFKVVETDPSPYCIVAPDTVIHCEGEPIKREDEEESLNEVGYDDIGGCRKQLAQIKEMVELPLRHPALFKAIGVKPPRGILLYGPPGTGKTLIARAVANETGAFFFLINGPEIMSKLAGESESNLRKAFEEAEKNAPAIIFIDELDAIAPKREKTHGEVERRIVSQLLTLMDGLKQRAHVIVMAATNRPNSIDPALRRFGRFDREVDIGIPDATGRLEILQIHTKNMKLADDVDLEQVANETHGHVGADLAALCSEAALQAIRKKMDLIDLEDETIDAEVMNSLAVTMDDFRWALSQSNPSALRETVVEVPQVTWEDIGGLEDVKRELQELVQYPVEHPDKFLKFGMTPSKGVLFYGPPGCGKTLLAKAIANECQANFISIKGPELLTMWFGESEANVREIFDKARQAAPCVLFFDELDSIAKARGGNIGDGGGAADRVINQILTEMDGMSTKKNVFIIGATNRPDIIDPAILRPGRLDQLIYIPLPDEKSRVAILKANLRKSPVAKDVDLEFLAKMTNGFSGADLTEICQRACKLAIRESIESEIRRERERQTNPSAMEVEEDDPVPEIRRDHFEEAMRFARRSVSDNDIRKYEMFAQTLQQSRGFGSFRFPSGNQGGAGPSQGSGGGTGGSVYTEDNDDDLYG

As to `CC(C)NCC(O)COc1cccc2ccccc12` (stereo not drawn) [Propranolol], the “Peff A B, Range” value with Caco-2 cell monolayer (pH 7.4 Caco-2, A to B) was 18.50-36.80 ×E−6 cm/sec. Also, the “Peff B A, Range” value in the data set with Caco-2 cell monolayer (pH 7.4 Caco-2, B to A) is recorded as 16.30-31.40 ×E−6 cm/sec. For the same compound, in “in vitro”, the apical-to-basolateral permeability (Papp A→B) (in general, the apparent permeability from the apical to the basolateral side of a cell layer) at 90 min, 100 μM was 285 nm/s and the Papp B→A (in general, how fast a substance crosses the layer from the basolateral side) at 90 min, 100 μM stood at 209 nm/s.
Consider `COc1cc2c(C(N)=O)cccc2n1-c1nc2c(c(NCc3ccccc3)n1)CCCC2` [compound 91, 1-[4-(benzylamino)-5,6,7,8-tetrahydroquinazolin-2-yl]-2-methoxy-1H-indole-4-carboxamide], for which the IC50 (usually the concentration that inhibits the measured activity by half) was less than 0.03 µM on p97 and less than 10 µM in the data set on K48-Ub, A549 cells.
In the case of `Cc1cc2c(C#N)cccc2n1-c1nc2c(c(NCc3ccccc3)n1)CNCC2` [compound 42, 1-[4-(benzylamino)-5H,6H,7H,8H-pyrido[4,3-d]pyrimidin-2-yl]-2-methyl-1H-indole-4-carbonitrile], the IC50 on p97 is less than 0.1 µM; with K48-Ub, A549 cells it was less than 10 µM.
In the same order, the values of `Cc1cc2c(C(N)=O)cccc2n1-c1nc2c(c(NCc3ccccc3F)n1)COCC2` [compound 123, 1-(4-{[(2-fluorophenyl)methyl]amino}-5H,7H,8H-pyrano[4,3-d]pyrimidin-2-yl)-2-methyl-1H-indole-4-carboxamide] are less than 0.1 µM and less than 10 µM.
The matching figures for `Cc1cc2c(C(=O)NCCN(C)C)cccc2n1-c1nc2c(c(NCc3ccccc3)n1)COCC2` [compound 84]: less than 0.03 µM and less than 10 µM.
For `Cc1cc2c(C(N)=O)cccc2n1-c1nc2c(c(NCc3ccc(F)cc3)n1)COCC2` [compound 122, 1-(4-{[(4-fluorophenyl)methyl]amino}-5H,7H,8H-pyrano[4,3-d]pyrimidin-2-yl)-2-methyl-1H-indole-4-carboxamide], the half-maximal inhibitory concentration (IC50) against p97 is less than 0.1 µM; in the data set on K48-Ub, A549 cells it was less than 10 µM.
Consider `COc1nc2ccccc2n1-c1nc2c(c(NCc3ccccc3)n1)CCCC2` [compound 9, N-benzyl-2-(2-methoxy-1H-1,3-benzodiazol-1-yl)-5,6,7,8-tetrahydroquinazolin-4-amine], for which the IC50 is less than 0.1 µM on p97 and less than 10 µM with K48-Ub, A549 cells.
In the case of `Cc1cc2c(S(C)(=O)=O)cccc2n1-c1nc2c(c(NCc3ccccc3)n1)COCC2` [compound 118, N-benzyl-2-(4-methanesulfonyl-2-methyl-1H-indol-1-yl)-5H,7H,8H-pyrano[4,3-d]pyrimidin-4-amine], the IC50 against p97 was less than 0.3 µM; in the data set on K48-Ub, A549 cells it was less than 10 µM.
